The results in this text go back to US9765061B2, “Trail enhancers for the selective killing of cancer cells” (The Scripps Research Institute, priority 2013, dated 2017).

SMILES strings stand for the structures.

In one assay the test system is A549 cell line. In words: Viability of A549 cells, XTT-based assay, with or without TRAIL. It is filed as cell-based, human. As for the experimental part:
FIG. 4: C12 sensitizes long cancer cell line A549 to TRAIL. (A) Viability of cells was examined after 24-hour incubation in media containing TRAIL (50 ng/ml), compound (C12) (1 μM), compound (C12R) (25 μM) or the indicated combination of TRAIL (T) with (C12) or (C12R). The chemical structures of (C12) and its stereoisomer (C12R) are shown on the right. (B) Viability of cells was examined after 24-hour incubation in media, containing TRAIL (50 ng/ml) and the indicated doses of C12. Viable cells remaining after the treatment were determined as a function of mitochondrial activity of living cells according to XTT-based toxicology assay kit (Sigma) and are shown as a percentage of viable untreated cells.
To test this hypothesis, we examined the effect of C12 in vitro on the activity of TRAIL against A549 cell line derived from a cancer sample of the human lung.
Cytotoxicity was determined by using the XTT-based toxicology assay kit (Sigma, St. Louis, Miss.) in accordance with the manufacturer's instructions. For some experiments, to confirm the apoptotic nature of toxicity, cells were analyzed using protocols and instructions of the Annexin V-FITC apoptosis detection kit (Biovision, Mountain View, Calif.). In addition, caspase 3, 8 and 9 activities were determined by colorimetric assays (R&D System), and the data are expressed as fold increases compared to the values of untreated or control-treated cells (n=5).
On the technique in general: Tetrazolium dyes change colour on reduction, which living cells bring about.

Assay [1] has as its system bone marrow-derived macrophages (BMDM). In words: Responses of bone marrow-derived macrophages to AHLs (toxicity, Western blot). It is filed as cell-based, mouse. The protocol:
FIG. 13. AHL-mediated inhibition of inflammation-induced NF-κB signaling is sufficient for rendering tumors susceptible to TRAIL-induced apoptosis. a) Western blot analysis of PARP cleavage in cancer cells stimulated for 3 h with TRAIL or its combination with different AHLs as indicated, b) Western blot analysis of PARP cleavage as well as phosphorylated forms of eIF2α and p38 in extracts from bone marrow-derived macrophages (BMDM) stimulated with (C12) or (3-N2), i.e., (S)-(3-N2), as indicated, c) Western blot analysis of PARP cleavage and temporal profiles of IκBα expression in BMDM extracts prepared after treatment with LPS or its combination with (C12) or (3-N2). d) Inhibitory effect of (C12) and its derivatives on LPS-induced TNF production in BMDM. e) Lung cancer cells were exposed to (3-N2) (10 μM), TRAIL (0.5 ng/ml), TNF (20 ng/ml) or their combinations as indicated. After 2 h, cell lysates were prepared and analyzed by Western blot for PARP cleavage, IκBα and actin.
Mice, bone marrow-derived macrophages and other cell culture, C57BL/6 mice were purchased from the Jackson Laboratory (Bar Harbor, Me.). Bone marrow-derived macrophages (BMDM) and murine embryonic fibroblasts (MEF) were prepared by using standard protocols that were approved by the TSRI Animal Care and Use Committee. L929/NCTC clone 929 (connective tissue, mouse) cell lines were purchased from ATCC (Manassas, Va.). MEFs and L929 cell line were maintained in GM (see above). BMDM were cultured in 70% GM and 30% L929 conditioned medium. In general, cells (˜60-70% confluence) were incubated in fresh medium for 12-14 h before stimulation.
Antibodies and Western blot analysis. Anti-eIF2α, phospho-eIF2α[…](p-eIF2α), p38, p-p38 (Thr180/Tyr132), p-RelA (Ser536), p-I κB ? 32/36), PARP 20 antibodies were purchased from Cell Signaling; anti-RelA, I κB α, IκBβ were from Santa Cruz Biotechnology. Cellular extracts were prepared and analyzed by Western blot assay as previously described.^E3
Cell stimulation. In all experiments, BMDM were stimulated with LPS (100 ng/ml), AHL (10-25 μM; usually BMDM and primary macrophages were stimulated by 25 μM of C12) or their combination as indicated in the figure legends. If not indicated, cancer and normal cells were stimulated with 40 ng/ml of TNFα, 20 ng/ml TRAIL and 10 μM (in case of cancer cells) or 25 μM (in case of normal cells) of AHL.
(Immunoblotting shows a protein as a band on a membrane.)

The test system of another assay is MCF7 cells. As to the kind of experiment: PARP cleavage in breast cancer MCF7 cells (Vector, Bcl-2, CLARP). Particulars: control MCF7, MCF7/Bcl-2 and MCF7/CLARP, FIG. 3B. It is filed as cell-based, human. As for the experimental part:
FIG. 3: Sensitivity of cancerous and non-cancerous cells to apoptosis induced by TNF, C12 or a combination of C12 and TNF. Cells were incubated with TNF, (C12) or a combination of TNF and (C12) as indicated, and the cleavage of PARP (an apoptotic marker) was determined by Western blot. (A and B) Breast cancer MCF-7 cells transfected with control vector (Vector) and vector expressing Bcl-2 or CLARP. (C) HeLa cell line. (D) Normal human bronchial epithelial cells (NHBE).
To further test this hypothesis, we compared sensitivity of breast cancer cell line MCF7 to apoptosis induced by TNF, C12 or their combination. In these experiments we used a control variant of MCF7 (Vector) as well as MCF7 cells stably expressing negative regulators of apoptosis, such as Bcl-2 and CLARP; Bcl-2 is an inhibitor of the intrinsic apoptotic pathway, whereas CLARP inhibits receptor-dependent apoptotic signaling, also called the extrinsic apoptotic pathway. The cells were incubated with TNF, C12 or their combination, and protein extracts were analyzed by Western blot for the cleavage of PARP, a biochemical marker indicative of apoptosis ^26.
Antibodies and Western blot analysis. Anti-eIF2α, phospho-eIF2α[…](p-eIF2α), p38, p-p38 (Thr180/Tyr132), p-RelA (Ser536), p-I κB ? […] Cellular extracts were prepared and analyzed by Western blot assay as previously described.^E3

In the case of `CCCCCCCCCC(=O)CC(=O)N[C@H]1CCOC1=O` [Compound 1, N-(3-oxo-dodecanoyl) homoserine lactone], in the assay on A549 cell line (C12 1 μM or 25 μM, C12R 25 μM, no TRAIL), the “cell growth and viability, compound alone” value is reported as “practically unchanged”. Besides, in the assay with A549 cell line (FIG. 8A), the “sensitivity of A549 cells to TRAIL in the presence of compound” value is “comparable increase in sensitivity”. In the assay on A549 cell line (Homo sapiens, A549, 100 nM of C12 and 50 ng/ml of TRAIL, 24-hours incubation, read-out: cells that lost their viability), the cytotoxicity at 0.1 µM was greater than 50%. In addition, in the assay on A549 cell line (combination of TRAIL (50 ng/ml) and C12 (1 μM)), the “viability of A549 cells” value was “dramatically reduced”. The “eIF2α phosphorylation in macrophages” value in assay [1] (Western blot, FIG. 13b) was “induced eIF2α phosphorylation in a similar fashion”. Moreover, the “blocking LPS-induced re-synthesis of IκBα” value in assay [1] (macrophages activated by LPS, FIG. 13c) is given as “equally effective”. Also, the “sensitivity to apoptosis (PARP cleavage), compound alone” value with MCF7 cells is “showed sensitivity”.
